Test results: ChEMBL document CHEMBL2073812, “Functional analysis of candidate ABC transporter proteins for sitosterol transport” (Biochim Biophys Acta, 2002)

What was measured:
[1] = target: ATP-dependent translocase ABCB1 (Homo sapiens, UniProt P08183); experiment: TP_TRANSPORTER: Flow cytometry in MDR1-expressing NIH3T3 cells; assay type: functional, cell-based; settings: mouse
Bile salt export pump = target: T1, Bile salt export pump (Rattus norvegicus, UniProt O70127); experiment: TP_TRANSPORTER: inhibition of taurocholate uptake (taurocholate: 2 uM, beta-sitosterol: 10 uM) in membrane vesicles of Bsep-expressing […] cells; assay type: functional, cell membranes, Membrane vesicle; settings: sf9, 10 µM
T1 sequence (O70127 whole entry): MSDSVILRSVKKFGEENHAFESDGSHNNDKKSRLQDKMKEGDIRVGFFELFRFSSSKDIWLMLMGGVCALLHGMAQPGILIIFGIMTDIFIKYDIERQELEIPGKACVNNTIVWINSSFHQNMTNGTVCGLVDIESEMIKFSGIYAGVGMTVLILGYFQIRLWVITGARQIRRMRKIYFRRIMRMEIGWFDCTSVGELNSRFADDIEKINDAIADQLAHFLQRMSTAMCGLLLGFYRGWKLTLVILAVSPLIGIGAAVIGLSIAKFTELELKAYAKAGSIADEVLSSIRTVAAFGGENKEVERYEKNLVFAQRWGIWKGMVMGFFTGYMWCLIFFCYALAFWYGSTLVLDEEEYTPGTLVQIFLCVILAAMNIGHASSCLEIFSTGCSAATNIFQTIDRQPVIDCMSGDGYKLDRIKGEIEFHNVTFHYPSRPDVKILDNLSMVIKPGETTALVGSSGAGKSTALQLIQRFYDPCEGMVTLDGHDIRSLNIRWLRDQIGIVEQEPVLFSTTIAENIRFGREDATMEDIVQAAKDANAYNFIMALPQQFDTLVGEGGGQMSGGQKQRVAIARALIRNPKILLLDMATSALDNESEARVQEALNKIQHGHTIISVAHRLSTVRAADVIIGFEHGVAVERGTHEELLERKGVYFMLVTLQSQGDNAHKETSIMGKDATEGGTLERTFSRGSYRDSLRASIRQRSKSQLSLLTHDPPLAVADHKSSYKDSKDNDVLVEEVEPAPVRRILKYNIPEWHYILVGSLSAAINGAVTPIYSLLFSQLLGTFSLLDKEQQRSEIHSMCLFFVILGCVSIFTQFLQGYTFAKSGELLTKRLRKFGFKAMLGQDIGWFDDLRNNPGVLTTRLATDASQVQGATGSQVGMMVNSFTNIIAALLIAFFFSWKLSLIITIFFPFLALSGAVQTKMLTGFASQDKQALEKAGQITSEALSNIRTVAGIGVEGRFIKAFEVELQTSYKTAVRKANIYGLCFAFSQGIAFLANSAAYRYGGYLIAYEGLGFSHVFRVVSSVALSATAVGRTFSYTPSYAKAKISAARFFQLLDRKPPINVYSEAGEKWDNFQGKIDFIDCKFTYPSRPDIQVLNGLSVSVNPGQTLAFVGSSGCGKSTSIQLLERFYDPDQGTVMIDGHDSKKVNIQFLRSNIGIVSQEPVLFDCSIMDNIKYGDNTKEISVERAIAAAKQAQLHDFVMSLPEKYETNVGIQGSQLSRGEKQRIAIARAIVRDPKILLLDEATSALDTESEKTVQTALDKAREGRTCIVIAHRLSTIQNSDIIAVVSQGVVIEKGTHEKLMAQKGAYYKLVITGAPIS

[2] = target: Multidrug resistance-associated protein 1 (Mus musculus, UniProt O35379); experiment: TP_TRANSPORTER: Flow cytometry in lymphocytes from Mdr1a/b(-/)- mice; assay type: functional; settings: lymphocyte
[3] = target: T2, Broad substrate specificity ATP-binding cassette transporter ABCG2 (Mus musculus, UniProt Q7TMS5); experiment: TP_TRANSPORTER: Flow cytometry in lymphocytes from Mdr1a/b-/- mice; assay type: functional, cell-based; settings: lymphocyte
T2 sequence (Q7TMS5 whole entry): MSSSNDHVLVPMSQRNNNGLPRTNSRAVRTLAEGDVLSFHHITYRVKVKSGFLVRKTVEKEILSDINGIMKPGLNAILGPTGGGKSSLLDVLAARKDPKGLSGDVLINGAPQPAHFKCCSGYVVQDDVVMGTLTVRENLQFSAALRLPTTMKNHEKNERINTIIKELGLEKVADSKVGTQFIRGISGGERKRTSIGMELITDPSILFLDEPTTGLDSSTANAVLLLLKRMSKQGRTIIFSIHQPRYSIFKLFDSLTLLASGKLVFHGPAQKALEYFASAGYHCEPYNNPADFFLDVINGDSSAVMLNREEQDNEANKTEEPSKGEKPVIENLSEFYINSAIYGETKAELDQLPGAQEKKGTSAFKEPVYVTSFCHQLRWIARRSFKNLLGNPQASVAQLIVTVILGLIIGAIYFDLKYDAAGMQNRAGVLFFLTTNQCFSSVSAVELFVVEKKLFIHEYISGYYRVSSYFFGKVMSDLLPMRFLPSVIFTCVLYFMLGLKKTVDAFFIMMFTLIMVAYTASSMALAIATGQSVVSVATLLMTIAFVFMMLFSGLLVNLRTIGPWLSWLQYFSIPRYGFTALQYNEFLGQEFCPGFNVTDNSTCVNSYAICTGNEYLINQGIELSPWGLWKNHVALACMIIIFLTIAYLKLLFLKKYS

Chain of Multidrug resistance-associated protein 1 (O35379 whole entry): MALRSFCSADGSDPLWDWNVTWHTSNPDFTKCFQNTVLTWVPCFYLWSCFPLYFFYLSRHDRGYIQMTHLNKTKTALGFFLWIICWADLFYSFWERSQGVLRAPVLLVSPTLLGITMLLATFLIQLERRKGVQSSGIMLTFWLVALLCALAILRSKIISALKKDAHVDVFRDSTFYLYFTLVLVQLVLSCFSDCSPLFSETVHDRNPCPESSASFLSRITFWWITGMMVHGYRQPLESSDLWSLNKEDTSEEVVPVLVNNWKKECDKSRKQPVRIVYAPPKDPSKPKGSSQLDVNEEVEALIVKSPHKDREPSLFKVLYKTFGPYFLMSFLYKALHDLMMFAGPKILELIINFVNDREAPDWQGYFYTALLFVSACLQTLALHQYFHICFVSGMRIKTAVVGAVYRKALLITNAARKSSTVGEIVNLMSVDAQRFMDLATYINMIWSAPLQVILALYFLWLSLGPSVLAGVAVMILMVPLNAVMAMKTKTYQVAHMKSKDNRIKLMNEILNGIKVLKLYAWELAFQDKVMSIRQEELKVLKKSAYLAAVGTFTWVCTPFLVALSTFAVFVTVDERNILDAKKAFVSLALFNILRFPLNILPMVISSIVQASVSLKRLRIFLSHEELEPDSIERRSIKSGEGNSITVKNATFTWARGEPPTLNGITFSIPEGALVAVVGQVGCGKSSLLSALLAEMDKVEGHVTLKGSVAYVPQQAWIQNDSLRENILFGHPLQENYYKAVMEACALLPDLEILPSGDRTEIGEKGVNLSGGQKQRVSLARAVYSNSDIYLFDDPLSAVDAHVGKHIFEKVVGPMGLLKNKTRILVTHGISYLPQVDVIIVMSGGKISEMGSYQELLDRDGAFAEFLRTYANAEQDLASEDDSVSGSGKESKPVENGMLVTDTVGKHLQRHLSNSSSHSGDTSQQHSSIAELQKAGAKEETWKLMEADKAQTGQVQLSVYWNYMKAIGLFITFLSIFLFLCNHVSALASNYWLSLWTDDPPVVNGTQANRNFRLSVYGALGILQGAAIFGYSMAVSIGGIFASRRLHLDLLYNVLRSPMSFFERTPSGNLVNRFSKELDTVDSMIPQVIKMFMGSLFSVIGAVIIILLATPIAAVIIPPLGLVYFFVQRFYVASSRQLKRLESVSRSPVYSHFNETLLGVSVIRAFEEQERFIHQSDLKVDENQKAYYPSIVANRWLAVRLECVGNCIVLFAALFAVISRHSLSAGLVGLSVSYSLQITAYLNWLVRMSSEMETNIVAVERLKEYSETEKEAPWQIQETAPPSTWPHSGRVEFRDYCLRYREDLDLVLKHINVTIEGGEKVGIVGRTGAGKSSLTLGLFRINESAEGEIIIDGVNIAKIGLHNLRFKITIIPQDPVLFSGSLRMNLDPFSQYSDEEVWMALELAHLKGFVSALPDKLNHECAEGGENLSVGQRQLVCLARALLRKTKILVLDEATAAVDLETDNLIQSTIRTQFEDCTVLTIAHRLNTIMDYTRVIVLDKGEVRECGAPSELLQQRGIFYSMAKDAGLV
Chain of ATP-dependent translocase ABCB1 (P08183 whole entry): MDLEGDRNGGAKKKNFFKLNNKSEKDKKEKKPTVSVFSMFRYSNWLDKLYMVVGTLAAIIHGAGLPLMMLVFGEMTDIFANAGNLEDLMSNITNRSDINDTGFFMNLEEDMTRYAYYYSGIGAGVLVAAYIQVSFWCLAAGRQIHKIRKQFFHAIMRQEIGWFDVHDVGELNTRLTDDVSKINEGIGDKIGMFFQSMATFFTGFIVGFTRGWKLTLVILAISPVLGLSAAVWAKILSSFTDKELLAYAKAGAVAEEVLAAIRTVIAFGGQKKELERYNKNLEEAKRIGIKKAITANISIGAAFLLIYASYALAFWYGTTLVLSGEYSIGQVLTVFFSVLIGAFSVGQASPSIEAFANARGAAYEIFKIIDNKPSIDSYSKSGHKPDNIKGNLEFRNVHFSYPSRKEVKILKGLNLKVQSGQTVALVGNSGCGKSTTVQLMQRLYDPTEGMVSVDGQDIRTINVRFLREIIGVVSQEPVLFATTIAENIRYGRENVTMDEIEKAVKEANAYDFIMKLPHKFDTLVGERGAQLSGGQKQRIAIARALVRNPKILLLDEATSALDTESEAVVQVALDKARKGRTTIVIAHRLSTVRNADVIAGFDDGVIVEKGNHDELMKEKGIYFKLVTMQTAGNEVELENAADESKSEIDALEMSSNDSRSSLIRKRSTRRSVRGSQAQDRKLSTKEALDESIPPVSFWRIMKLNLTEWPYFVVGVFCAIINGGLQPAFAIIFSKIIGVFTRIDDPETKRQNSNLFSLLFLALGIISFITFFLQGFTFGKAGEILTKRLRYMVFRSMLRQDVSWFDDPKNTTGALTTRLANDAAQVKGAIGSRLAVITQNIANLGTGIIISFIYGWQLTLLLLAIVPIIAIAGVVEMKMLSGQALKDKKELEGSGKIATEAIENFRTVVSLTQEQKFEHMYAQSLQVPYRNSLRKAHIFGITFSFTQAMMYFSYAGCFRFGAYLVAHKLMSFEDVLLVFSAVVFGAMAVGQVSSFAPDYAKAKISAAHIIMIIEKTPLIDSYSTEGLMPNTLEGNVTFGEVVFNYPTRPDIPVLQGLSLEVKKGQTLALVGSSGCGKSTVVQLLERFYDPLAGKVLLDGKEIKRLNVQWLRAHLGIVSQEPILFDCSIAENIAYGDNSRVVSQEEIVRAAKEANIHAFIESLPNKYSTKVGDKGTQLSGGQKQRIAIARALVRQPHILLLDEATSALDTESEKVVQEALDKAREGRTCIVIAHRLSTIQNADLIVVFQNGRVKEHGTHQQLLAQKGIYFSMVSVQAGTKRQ

In the case of CC[C@H](CC[C@@H](C)[C@H]1CC[C@H]2[C@@H]3CC=C4C[C@@H](O)CC[C@]4(C)[C@H]3CC[C@]12C)C(C)C [BETA-SITOSTEROL], the Activity [1] is reported as “is not a substrate [-]”, the Activity (Bile salt export pump) is reported as “is not an inhibitor [-]” and the Activity [2] is reported as “is not a substrate [-]”. The Activity [3] was “is not a substrate [-]”.
